Results taken from PubChem BioAssay (NCI).
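In this assay, cells in 96-well plates receive the compound at five concentrations for 48 hours. Endpoints are linearly interpolated between the surrounding concentrations. GI50 is the concentration that inhibits growth by half. TGI: total growth inhibition.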

What was measured:
Assay in all cases: inhibition of tumour cell growth, NCI panel, 48 h; in the data active = GI50 below about 0.43 µM; inactive = the rest
[1] = test system: 786-0 renal
[2] = test system: ACHN renal
[3] = test system: BT-549 breast
[4] = test system: CAKI-1 renal
[5] = test system: EKVX NSCLC
[6] = test system: HCT-116 colon
[7] = test system: HOP-62 NSCLC
[8] = test system: HOP-92 NSCLC
[9] = test system: HS 578T breast
[10] = test system: LOX IMVI melanoma
[11] = test system: M14 melanoma
[12] = test system: MCF7 breast
[13] = test system: MDA-MB-231 breast
[14] = test system: NCI-H226 lung
[15] = test system: NCI-H23 lung
[16] = test system: NCI/ADR-RES ovarian
[17] = test system: OVCAR-8 ovarian
[18] = test system: RXF 393 renal
[19] = test system: SF-268 CNS
[20] = test system: SF-295 CNS
[21] = test system: SF-539 CNS
[22] = test system: SK-MEL-2 melanoma
[23] = test system: SK-OV-3 ovarian
[24] = test system: SNB-19 CNS
[25] = test system: SNB-75 CNS
[26] = test system: T-47D breast
[27] = test system: U251 CNS
[28] = test system: A549 NSCLC
[29] = test system: CCRF-CEM leukemia
[30] = test system: COLO 205 colon
[31] = test system: HCC-2998 colon
[32] = test system: HCT-15 colon
[33] = test system: HL-60(TB) leukemia
[34] = test system: HT29 colon
[35] = test system: IGROV1 ovarian
[36] = test system: K-562 leukemia
[37] = test system: KM12 colon
[38] = test system: MDA-MB-435
[39] = test system: MOLT-4 leukemia
[40] = test system: NCI-H460 lung
[41] = test system: NCI-H522 lung
[42] = test system: OVCAR-3 ovarian
[43] = test system: OVCAR-5 ovarian
[44] = test system: PC-3 prostate
[45] = test system: RPMI-8226 leukemia
[46] = test system: SK-MEL-28 melanoma
[47] = test system: SK-MEL-5 melanoma
[48] = test system: SN12C renal
[49] = test system: SW-620 colon
[50] = test system: TK-10 renal
[51] = test system: UACC-257 melanoma
[52] = test system: UACC-62 melanoma
[53] = test system: UO-31 renal

Nc1nc(Cl)c(N=Nc2ccc(Cl)cc2)c(NCC2(CO)CCC2)n1
82.6 µM: TGI [7]
30.1 µM: TGI [25]
61.6 µM: TGI [18]
64.9 µM: TGI [8]
88.8 µM: TGI [17]
inactive: GI50 [1] 10.2 µM | GI50 [2] 41 µM | GI50 [3] 49.8 µM | GI50 [4] 2.27 µM | GI50 [5] 21.7 µM | GI50 [6] 36.8 µM | GI50 [7] 42 µM | GI50 [8] 14.9 µM | GI50 [9] 32.9 µM | GI50 [10] 41 µM | GI50 [11] 98.9 µM | GI50 [12] 25.3 µM | GI50 [13] 8.74 µM | GI50 [14] 77 µM | GI50 [15] 48 µM | GI50 [16] 41.8 µM | GI50 [17] 26.8 µM | GI50 [18] 36.5 µM | GI50 [19] 46.3 µM | GI50 [20] 49.4 µM | GI50 [21] 90.7 µM | GI50 [22] 89.3 µM | GI50 [23] 12.6 µM | GI50 [24] 33.7 µM | GI50 [25] 7.05 µM | GI50 [26] 26.4 µM | GI50 [27] 41.1 µM
51.1 µM: TGI [13]

COc1ccc(OC)c(-c2cc(-c3ccc(Cl)cc3)nn2-c2ccc(S(=O)(=O)NC(C)=O)cc2)c1
14.7 µM: TGI [3]
60.9 µM: TGI [19]
21.9 µM: TGI [44]
12.1 µM: TGI [1]
64.7 µM: TGI [42]
8.21 µM: TGI [11]
73.5 µM: TGI [29]
23.1 µM: TGI [14]
10.9 µM: TGI [48]
27.8 µM: TGI [39]
6.93 µM: TGI [31]
> 100 µM: TGI [28] | TGI [4] | TGI [9] | TGI [34] | TGI [35] | TGI [36] | TGI [12] | TGI [38] | TGI [40] | TGI [41] | TGI [18] | TGI [20] | TGI [53]
10.3 µM: TGI [27]
84.3 µM: TGI [17]
7.5 µM: TGI [45]
28 µM: TGI [5]
34.2 µM: TGI [51]
15.5 µM: TGI [47]
41.9 µM: TGI [33]
33.2 µM: TGI [8]
38.2 µM: TGI [50]
28.7 µM: TGI [24]
57.9 µM: TGI [46]
11.2 µM: TGI [6] | TGI [52]
3.65 µM: TGI [10]
19.3 µM: TGI [43]
11.1 µM: TGI [2]
inactive: GI50 [1] 3.03 µM | GI50 [28] 28.6 µM | GI50 [2] 3.23 µM | GI50 [3] 4.26 µM | GI50 [4] 37.6 µM | GI50 [29] 20 µM | GI50 [30] 18.2 µM | GI50 [5] 14.3 µM | GI50 [31] 1710 nM | GI50 [6] 2.84 µM | GI50 [32] 3.29 µM | GI50 [33] 3.7 µM | GI50 [7] 10.5 µM | GI50 [8] 10.2 µM | GI50 [9] 38.2 µM | GI50 [34] 5.54 µM | GI50 [35] 37.2 µM | GI50 [36] 3.18 µM | GI50 [37] 20.3 µM | GI50 [10] 1.79 µM | GI50 [11] 3.04 µM | GI50 [12] 26.4 µM | GI50 [38] 45.3 µM | GI50 [39] 5.62 µM | GI50 [14] 4.07 µM | GI50 [15] 11.3 µM | GI50 [40] 29.3 µM | GI50 [41] 32.4 µM | GI50 [42] 25.4 µM | GI50 [43] 5.97 µM | GI50 [17] 21 µM | GI50 [44] 3.61 µM | GI50 [45] 4.75 µM | GI50 [18] 23.1 µM | GI50 [19] 21.1 µM | GI50 [20] 42.8 µM | GI50 [22] 26.6 µM | GI50 [46] 21.3 µM | GI50 [47] 2070 nM | GI50 [48] 3.02 µM | GI50 [24] 10.6 µM | GI50 [49] 5.39 µM | GI50 [26] 13.1 µM | GI50 [50] 19.3 µM | GI50 [27] 2.9 µM | GI50 [51] 16.8 µM | GI50 [52] 3.22 µM | GI50 [53] 34.8 µM
70 µM: TGI [22]
46.7 µM: TGI [30]
46.2 µM: TGI [37]
18.8 µM: TGI [32]
25.6 µM: TGI [15]
22.2 µM: TGI [7] | TGI [49]
36.1 µM: TGI [26]
